Data as given in ChEMBL document CHEMBL5036325, “Novel Biphenyl Pyridines as Potent Small-Molecule Inhibitors Targeting the Programmed Cell Death-1/Programmed Cell Death-Ligand 1 Interaction” (J Med Chem, 2021).
Active and inactive are the calls of the source. The rule behind the calls is not given here.

Legend:
[1] = molecular target: Programmed cell death protein 1/Programmed cell death 1 ligand 1 (Homo sapiens, UniProt Q9NZQ7); assay: Inhibition of PD-1/PD-L1 interaction (unknown origin) preincubated with PD-L1 for 15 mins followed by PD-1 addition measured after 90 mins by TR-FRET assay; type: protein-complex assay
CT26 [2] = assay: Antitumour activity against mouse CT26 cells implanted in BALB/c mouse assessed as inhibition of tumour growth at 40 mg/kg, po measured for 14 days relative to control; type: functional; settings: 336 h, time 14 day, read-out: TGI
MDA-MB-231 [3] = assay: Antitumor immunity against human MDA-MB-231 cells co-cultured with CD3/CD28/CD2 T cell activator stimulated human PMBC assessed as cell death measuring lactate dehydrogenase release at 500 nM measured for 12 hrs by PBMC killing assay relative to control; type: functional
CT26 [4] = assay: Antitumour activity against mouse CT26 cells implanted in BALB/c mouse assessed as increased infiltration of CD8+ cell in tumor tissue at 40 to 80 mg/kg, po administered twice a day by immunohistochemical analysis; type: functional, organism-based; settings: dose 40-80 mg/kg
[5] = Tmax in Sprague-Dawley rat at 25 mg/kg, po measured upto 24 hrs by LC-MS/MS analysis; type: ADME, organism-based; settings: in vivo
[6] = Clearance in Sprague-Dawley rat at 3 mg/kg, iv measured upto 24 hrs by LC-MS/MS analysis; type: ADME, organism-based; settings: in vivo
CT26 [7] = assay: Antitumour activity against mouse CT26 cells implanted in BALB/c mouse assessed as induction of tumor shrinkage at 40 to 80 mg/kg, po administered twice a day by Hematoxylin and Eosin staining based analysis; type: functional, organism-based; settings: dose 40-80 mg/kg
MDA-MB-231 [8] = assay: Antitumor activity against human MDA-MB 231 cells assessed as cell viability at […] by LDH assay; type: functional, cell-based; settings: dose 1.5 µM
[9] = AUC (0 to t) in Sprague-Dawley rat at 3 mg/kg, iv measured upto 24 hrs by LC-MS/MS analysis; type: ADME, organism-based; set-up: route intravenous, dose 3 mg/kg, time <=24; settings: in vivo
CT26 [10] = assay: Antitumor activity against mouse CT26 cells implanted in BALB/c mouse assessed as tumor growth inhibition at 40 to 80 mg/kg/day, po measured once in 2 weeks relative to control; type: functional; settings: dose 40-80 mg/kg/day
MDA-MB-231 [11] = assay: Antitumor immunity against human MDA-MB-231 cells co-cultured with CD3/CD28/CD2 T cell activator stimulated human PMBC assessed as cell death measuring lactate dehydrogenase release at 375 nM measured for 12 hrs by PBMC killing assay relative to control; type: functional
[12] = Cmax in Sprague-Dawley rat at 3 mg/kg, iv measured upto 24 hrs by LC-MS/MS analysis; type: ADME, organism-based; set-up: route intravenous, dose 3 mg/kg, time <=24; settings: in vivo
[13] = Cmax in Sprague-Dawley rat at 25 mg/kg, po measured upto 24 hrs by LC-MS/MS analysis; type: ADME, organism-based; set-up: route oral, dose 25 mg/kg, time <=24; settings: in vivo
[14] = Half life in Sprague-Dawley rat at 25 mg/kg, po measured upto 24 hrs by LC-MS/MS analysis; type: ADME, organism-based; settings: in vivo
CT26 [15] = assay: Antitumour activity against mouse CT26 cells implanted in BALB/c mouse assessed as inhibition of tumour cell growth at 40 to 80 mg/kg, po administered twice a day by Hematoxylin and Eosin staining based analysis; type: functional, organism-based; settings: dose 40-80 mg/kg
[16] = Clearance in Sprague-Dawley rat at 25 mg/kg, po measured upto 24 hrs by LC-MS/MS analysis; type: ADME, organism-based; settings: in vivo
[17] = Apparent volume of distribution in Sprague-Dawley rat at 25 mg/kg, po measured upto 24 hrs by LC-MS/MS analysis; type: ADME, organism-based; settings: in vivo
[18] = Tmax in Sprague-Dawley rat at 3 mg/kg, iv measured upto 24 hrs by LC-MS/MS analysis; type: ADME, organism-based; settings: in vivo
[19] = Apparent volume of distribution in Sprague-Dawley rat at 3 mg/kg, iv measured upto 24 hrs by LC-MS/MS analysis; type: ADME, organism-based; settings: in vivo, read-out: Vz
[20] = Toxicity in BALB/c mouse implanted with mouse CT26 cells assessed as body weight change at 40 to 80 mg/kg/day, po measured once in 2 weeks; type: organism-based; settings: in vivo, 336 h, dose 40-80 mg/kg/day
CT26 [21] = assay: Antitumour activity against mouse CT26 cells implanted in BALB/c mouse assessed as decrease in nucleus to cytoplasm ratio at 40 to 80 mg/kg, po administered twice a day by Hematoxylin and Eosin staining based analysis; type: functional, organism-based; settings: dose 40-80 mg/kg
[22] = AUC (0 to t) in Sprague-Dawley rat at 25 mg/kg, po measured upto 24 hrs by LC-MS/MS analysis; type: ADME, organism-based; set-up: route oral, dose 25 mg/kg, time <=24; settings: in vivo
[23] = Cytotoxicity against human PBMC cells assessed as cell viability at […] by LDH assay; type: cell-based; settings: dose 1.5 µM
[24] = Toxicity in BALB/c mouse implanted with mouse CT26 cells assessed as mortality at 40 to 80 mg/kg/day, po measured once in 2 weeks; type: organism-based; settings: in vivo, 336 h, dose 40-80 mg/kg/day
[25] = Oral bioavailability in Sprague-Dawley rat at 25 mg/kg measured upto 24 hrs by LC-MS/MS analysis; type: ADME, organism-based; settings: in vivo
[26] = Half life in Sprague-Dawley rat at 3 mg/kg, iv measured upto 24 hrs by LC-MS/MS analysis; type: ADME, organism-based; settings: in vivo
MDA-MB-231 [27] = assay: Antitumor immunity against human MDA-MB-231 cells co-cultured with CD3/CD28/CD2 T cell activator stimulated human PMBC assessed as cell death measuring lactate dehydrogenase release at 48.9 to 1500 nM measured for 12 hrs by PBMC killing assay; type: functional, cell-based; settings: dose lower 48.9 nM, dose upper […]
CT26 [28] = assay: Antitumour activity against mouse CT26 cells implanted in po dosed BALB/c mouse assessed as increase in CD8+ cells in dissociated tumor tissue administered once daily for 2 weeks by flow cytometry analysis; type: functional, organism-based
CT26 [29] = assay: Antitumor activity against mouse CT26 cells implanted in BALB/c mouse assessed as decrease in final tumor weight at 40 to 80 mg/kg/day, po measured once in 2 weeks relative to control; type: functional; set-up: scale not given: the % may be the effect or the level left; settings: dose 40-80 mg/kg/day
MDA-MB-231 [30] = assay: Antitumor immunity against human MDA-MB-231 cells co-cultured with CD3/CD28/CD2 T cell activator stimulated human PMBC assessed as cell death measuring lactate dehydrogenase release measured for 12 hrs by PBMC killing assay; type: functional, cell-based; settings: MDA-MB-231, 12 h

Chain of Programmed cell death protein 1/Programmed cell death 1 ligand 1 (Q15116 whole entry): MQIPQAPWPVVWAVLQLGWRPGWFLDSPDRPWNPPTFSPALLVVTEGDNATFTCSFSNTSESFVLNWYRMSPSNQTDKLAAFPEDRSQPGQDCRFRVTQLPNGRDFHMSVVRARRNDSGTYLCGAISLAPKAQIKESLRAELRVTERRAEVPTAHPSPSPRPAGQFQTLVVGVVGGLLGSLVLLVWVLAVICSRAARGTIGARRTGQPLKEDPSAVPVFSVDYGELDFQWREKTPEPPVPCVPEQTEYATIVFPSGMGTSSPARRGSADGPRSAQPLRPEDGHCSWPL
Chain of Programmed cell death protein 1/Programmed cell death 1 ligand 1 (Q9NZQ7 whole entry): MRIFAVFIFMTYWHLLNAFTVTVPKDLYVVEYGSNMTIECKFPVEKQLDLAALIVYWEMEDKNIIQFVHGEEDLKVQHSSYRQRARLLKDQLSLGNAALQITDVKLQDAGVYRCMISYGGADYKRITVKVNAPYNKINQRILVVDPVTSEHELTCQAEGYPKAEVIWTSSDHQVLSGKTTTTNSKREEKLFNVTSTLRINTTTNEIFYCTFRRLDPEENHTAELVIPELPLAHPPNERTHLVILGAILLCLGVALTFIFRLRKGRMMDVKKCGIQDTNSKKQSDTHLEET

COc1nc(-c2cccc(-c3ccc4c(c3)OCCO4)c2C)ccc1CNCCN
IC50 [1]: 16.7 nM

COc1nc(-c2cccc(-c3ccccc3)c2C)ccc1C(=O)NCCO
IC50 [1]: 327 nM

COc1nc(-c2cccc(-c3ccccc3)c2C)ccc1CNCCN
IC50 [1]: 20.8 nM

COc1nc(-c2cccc(-c3ccccc3)c2C)ccc1CNCCCO
IC50 [1]: 7.4 nM

COc1nc(-c2cccc(-c3ccccc3)c2C)ccc1CN(C)CCO
IC50 [1]: 8.4 nM

COc1nc(-c2cccc(-c3ccc4c(c3)OCCO4)c2C)ccc1CN[C@@H](CO)C(=O)O
IC50 [1]: 10.4 nM

COc1nc(-c2cccc(-c3ccc4c(c3)OCO4)c2C)ccc1CNCCO
IC50 [1]: 13.2 nM

COc1cccc(-c2cccc(-c3ccc(CNCCO)c(OC)n3)c2C)c1
IC50 [1]: 12.6 nM

COC(=O)c1ccc(-c2cccc(-c3ccccc3)c2C)nc1OC
IC50 [1]: 326 nM

COc1nc(OCc2cccc(-c3ccccc3)c2C)ccc1CNCCNC(C)=O
inhibition in vivo at 40 mg/kg (CT26 [2]): 32% | Activity (MDA-MB-231 [3]): 44%

COc1nc(-c2cccc(-c3ccccc3)c2C)ccc1CN[C@@H](CO)C(=O)O
IC50 [1]: 17 nM

COc1nc(-c2cccc(-c3ccc4c(c3)OCCO4)c2C)ccc1CNCCNC(C)=O
IC50 [1]: 14.1 nM

COc1nc(-c2cccc(-c3ccccc3)c2C)ccc1CNCCO
Activity (CT26 [4]): Active | Tmax [5]: 0.69 h | clearance [6]: 192 mL/min/kg | Activity (CT26 [7]): Active | Activity (MDA-MB-231 [8]): inactive | AUC(0-t) at 24 h [9]: 430 ng·h/mL | TGI (CT26 [10]): 67% | Activity (MDA-MB-231 [11]): 53% | Cmax [12]: 1230 ng/mL | Cmax [13]: 192 ng/mL | half-life [14]: 6.4 h | Activity (CT26 [15]): Active | CL/F [16]: 480 mL/min/kg | Vz [17]: 249.3 L/kg | Tmax [18]: 1.8 min | Vd [19]: 78.6 L/kg | Activity [20]: Non-Toxic | Activity (CT26 [21]): Active | inhibition in vivo at 40 mg/kg (CT26 [2]): 57% | AUC(0-t) at 24 h [22]: 787 ng·h/mL | Activity [23]: Non-Toxic | Activity [24]: Non-Toxic | bioavailability [25]: 22% | half-life [26]: 4.2 h | Activity (MDA-MB-231 [27]): Active | Activity (CT26 [28]): Dose-Dependent Effect | Activity (CT26 [29]): 60% | EC50 (MDA-MB-231 [30]): 100 nM | IC50 [1]: […]

Cc1c(-c2ccccc2)cccc1-c1ccc(CNCCO)cn1
IC50 [1]: 34.6 nM

COc1nc(-c2cccc(-c3ccccc3)c2C)ccc1CNCCNC(C)=O
IC50 [1]: 14.4 nM

CC(=O)NCCNCc1ccc(-c2cccc(-c3ccccc3)c2C)nc1
IC50 [1]: 52.8 nM

COc1nc(-c2cccc(-c3ccc4c(c3)OCCO4)c2C)ccc1CNCCO
IC50 [1]: 7.9 nM

COc1nc(-c2cccc(-c3ccccc3)c2C)ccc1CN[C@H](C)CO
IC50 [1]: 5 nM

COc1nc(-c2cccc(-c3ccc4c(c3)OCCO4)c2C)ccc1CNCCCO
IC50 [1]: 7.7 nM

Cc1c(-c2ccccc2)cccc1-c1cc(CNCCO)ccn1
IC50 [1]: 131 nM

COc1nc(-c2cccc(-c3ccccc3)c2C)ccc1CN1CC[C@@H](O)C1
IC50 [1]: 8.5 nM

COc1nc(-c2cccc(-c3ccccc3)c2C)ccc1CNC[C@@H]1CCC(=O)N1
IC50 [1]: 14.2 nM
